Test results taken from US12303509B2, “Compounds for the treatment of BRAF-associated diseases and disorders” (Pfizer Inc., priority 2020, dated 2025).
Counter-ions that a name gives are not always drawn.

Experiments:
[1] = biological target: full-length FLAG-tagged B-Raf(V600E) (Homo sapiens (Human), UniProt P15056, V600E); assay: BRAF V600E enzyme assay (TR-FRET competitive displacement); format: binding; details: averaged IC50; TR-FRET tracer displacement, 60 min
Method in brief: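 Displacement of 50 nM Tracer 1710 from 5 nM full-length N-terminally FLAG-tagged B-Raf(V600E), detected by TR-FRET with 0.5 nM Eu anti-FLAG antibody, in 25 mM HEPES pH 7.4, 10 mM MgCl2, 2% DMSO; 60 min at ~22 °C. Compounds 11-point, 3-fold from 10 μM; IC50 from 4-parameter fit at 50 POC.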

A375 cells = assay: Cellular phospho-ERK inhibition assay in A375 cells; format: cell-based; details: Homo sapiens, A-375, A375 cells (head prints A357), 2 hours treatment, read-out: A357 cell IC50
Method in brief: (§1)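 A375 (DMEM) or H1755 (RPMI) cells in 10% FBS treated 2 h at 37 °C with 9-point series, 66 pM–10 μM, 0.25% DMSO. Phospho-ERK1/2 (Thr202/Tyr204) measured by In Cell Western, normalised to GAPDH and to DMSO and 10 μM binimetinib controls; IC50 by 4-parameter fit.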

H1755 cells = assay: Cellular phospho-ERK inhibition assay in H1755 cells; format: cell-based; details: Homo sapiens, NCI-H1755, 2 hours treatment, read-out: H1755 Cell IC50
Method in brief: as §1

[2] = MDR1 LLC-PK1 and BCRP MDCKII permeability assay: permeability coefficient (Papp); format: in vitro ADME
Excerpt: (§2) Final organic concentration in the assay was 1%.

P-gp (MDR1) = P-gp (MDR1) (Homo sapiens (Human), UniProt P08183); assay: MDR1 LLC-PK1 permeability assay: efflux ratio; format: in vitro ADME; details: pig
Sequence of P-gp (MDR1) (P08183 whole entry, species assumed): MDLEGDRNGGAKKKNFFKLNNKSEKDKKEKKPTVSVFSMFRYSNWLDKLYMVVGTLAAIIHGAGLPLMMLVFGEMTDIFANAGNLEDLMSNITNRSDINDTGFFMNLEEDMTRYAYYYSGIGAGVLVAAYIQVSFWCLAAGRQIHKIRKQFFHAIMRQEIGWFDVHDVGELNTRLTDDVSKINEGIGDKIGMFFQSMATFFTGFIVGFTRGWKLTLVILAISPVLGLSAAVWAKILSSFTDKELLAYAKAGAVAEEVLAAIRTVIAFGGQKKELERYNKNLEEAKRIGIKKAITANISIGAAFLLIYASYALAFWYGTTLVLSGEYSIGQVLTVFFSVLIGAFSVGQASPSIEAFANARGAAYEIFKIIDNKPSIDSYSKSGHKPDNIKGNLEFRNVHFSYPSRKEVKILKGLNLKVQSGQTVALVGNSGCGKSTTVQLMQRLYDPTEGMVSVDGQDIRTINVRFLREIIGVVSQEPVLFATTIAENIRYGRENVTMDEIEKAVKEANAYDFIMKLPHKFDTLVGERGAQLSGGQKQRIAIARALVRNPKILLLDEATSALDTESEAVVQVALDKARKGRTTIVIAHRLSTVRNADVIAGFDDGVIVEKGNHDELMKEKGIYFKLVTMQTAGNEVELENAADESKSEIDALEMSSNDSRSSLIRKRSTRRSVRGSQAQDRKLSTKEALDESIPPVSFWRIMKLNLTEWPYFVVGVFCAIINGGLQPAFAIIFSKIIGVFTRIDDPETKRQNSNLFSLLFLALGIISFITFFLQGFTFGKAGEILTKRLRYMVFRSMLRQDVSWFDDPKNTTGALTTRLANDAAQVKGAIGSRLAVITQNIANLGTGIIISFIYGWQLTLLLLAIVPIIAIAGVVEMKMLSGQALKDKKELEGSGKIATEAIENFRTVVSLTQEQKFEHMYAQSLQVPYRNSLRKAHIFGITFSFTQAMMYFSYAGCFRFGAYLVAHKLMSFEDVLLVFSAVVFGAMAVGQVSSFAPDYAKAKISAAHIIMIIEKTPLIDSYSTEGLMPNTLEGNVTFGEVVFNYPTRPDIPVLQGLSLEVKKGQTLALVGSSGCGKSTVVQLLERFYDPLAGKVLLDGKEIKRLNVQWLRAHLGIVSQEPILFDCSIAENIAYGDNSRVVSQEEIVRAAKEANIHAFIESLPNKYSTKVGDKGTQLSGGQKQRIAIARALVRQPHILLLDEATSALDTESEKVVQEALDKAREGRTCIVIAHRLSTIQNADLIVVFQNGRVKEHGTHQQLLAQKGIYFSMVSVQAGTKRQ
Excerpt: as §2

BCRP = BCRP (Homo sapiens (Human), UniProt Q9UNQ0); assay: BCRP MDCKII permeability assay: efflux ratio; format: in vitro ADME; details: dog
Sequence of BCRP (Q9UNQ0 whole entry): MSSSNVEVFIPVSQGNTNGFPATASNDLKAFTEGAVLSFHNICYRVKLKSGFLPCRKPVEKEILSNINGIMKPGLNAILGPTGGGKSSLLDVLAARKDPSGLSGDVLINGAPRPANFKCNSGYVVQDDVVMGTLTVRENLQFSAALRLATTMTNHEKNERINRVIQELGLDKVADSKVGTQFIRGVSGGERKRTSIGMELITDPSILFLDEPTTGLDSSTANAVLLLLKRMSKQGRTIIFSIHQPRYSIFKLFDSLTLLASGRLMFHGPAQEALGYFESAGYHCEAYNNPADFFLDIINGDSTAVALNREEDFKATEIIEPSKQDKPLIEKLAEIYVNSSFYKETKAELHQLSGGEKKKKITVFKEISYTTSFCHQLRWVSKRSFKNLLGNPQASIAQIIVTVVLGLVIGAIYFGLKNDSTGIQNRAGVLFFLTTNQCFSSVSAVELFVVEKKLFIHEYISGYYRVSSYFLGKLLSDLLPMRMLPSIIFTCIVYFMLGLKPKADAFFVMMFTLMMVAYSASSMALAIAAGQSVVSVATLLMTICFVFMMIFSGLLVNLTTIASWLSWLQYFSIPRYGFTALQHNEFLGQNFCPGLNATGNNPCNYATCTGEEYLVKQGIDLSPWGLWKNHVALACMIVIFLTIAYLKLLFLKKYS

[3] = PK (free brain-to-free plasma ratio) (mouse); format: in vivo; details: male CD-1 mice, oral gavage 10 mg/kg, unbound brain-to-unbound plasma, read-out: B/P ratio (free)
Protocol: The ability of representative compounds to penetrate the BBB in mice was determined by evaluating the unbound brain-to-unbound plasma (also referred to as free brain-to-free plasma) concentration ratio in male CD-1 mice.
Brain compound levels were generated from oral mouse PK dosing with typical sampling times of 2, 4, 8, 12 and 24 hours post oral gavage dosing at 10 mg/kg. Brain samples were stored at −20±5° C. prior to analysis. Concentrations of test compound in mouse brain homogenate were determined by liquid chromatography tandem mass spectrometry (LC-MS/MS) following protein precipitation with acetonitrile. A 12-point calibration curve, ranging from 0.5 to 10,000 ng/mL, was prepared in duplicate. A solution of 400 μg/mL of test compound in dimethyl sulfoxide (DMSO) was serially diluted (3-fold) in 100% DMSO, and then 2.5 μL of each standard solution was added to 100 μL of naïve male CD-1 mice brain homogenate. To mimic the extraction in the standard curve, 2.5 μL of DMSO was added to all test samples. Both calibration and test brain homogenate samples were spiked with 10 μL of an IS (1 μg/mL of a structural analog). Brain homogenate was generated by adding 0.75 mL of 4:1 water:MeOH to each brain sample followed by homogenization for 1 minute with bead beater tubes a 6 m/s using an MP Fast Prep-24®. Proteins were precipitated from 100 μL of brain homogenate sample by the addition of 300 μL of acetonitrile. Samples were vortex-mixed for 5 minutes and spun in an Allegra X-12R centrifuge (Beckman Coulter, Fullerton, CA; SX4750A rotor) for 15 min at approximately 1,500×g at 4° C. A 100 μL aliquot of each supernatant was transferred via a 550 μL Personal Pipettor (Apricot Designs, Monrovia, CA) to 96-well plates and diluted 1:1 with HPLC grade water. The resulting plates were sealed with aluminum for LC-MS/MS analysis.
Brain-to-plasma ratios were calculated using the concentration of compound measured in the brain divided by the concentration of compound measured in the plasma. Brain-to-plasma ratios were always generated from a single animal and time point. Free brain-to-free plasma ratios were calculated by multiplying the brain-to-plasma ratio by the in vitro brain homogenate free fraction divided by the in vitro plasma free fraction using the following equation: (B/P)*(Bfu/Pfu). Table C provides the free brain-to-free plasma ratios of compounds disclosed herein.

Sequence of full-length FLAG-tagged B-Raf(V600E) (P15056 whole entry V600E): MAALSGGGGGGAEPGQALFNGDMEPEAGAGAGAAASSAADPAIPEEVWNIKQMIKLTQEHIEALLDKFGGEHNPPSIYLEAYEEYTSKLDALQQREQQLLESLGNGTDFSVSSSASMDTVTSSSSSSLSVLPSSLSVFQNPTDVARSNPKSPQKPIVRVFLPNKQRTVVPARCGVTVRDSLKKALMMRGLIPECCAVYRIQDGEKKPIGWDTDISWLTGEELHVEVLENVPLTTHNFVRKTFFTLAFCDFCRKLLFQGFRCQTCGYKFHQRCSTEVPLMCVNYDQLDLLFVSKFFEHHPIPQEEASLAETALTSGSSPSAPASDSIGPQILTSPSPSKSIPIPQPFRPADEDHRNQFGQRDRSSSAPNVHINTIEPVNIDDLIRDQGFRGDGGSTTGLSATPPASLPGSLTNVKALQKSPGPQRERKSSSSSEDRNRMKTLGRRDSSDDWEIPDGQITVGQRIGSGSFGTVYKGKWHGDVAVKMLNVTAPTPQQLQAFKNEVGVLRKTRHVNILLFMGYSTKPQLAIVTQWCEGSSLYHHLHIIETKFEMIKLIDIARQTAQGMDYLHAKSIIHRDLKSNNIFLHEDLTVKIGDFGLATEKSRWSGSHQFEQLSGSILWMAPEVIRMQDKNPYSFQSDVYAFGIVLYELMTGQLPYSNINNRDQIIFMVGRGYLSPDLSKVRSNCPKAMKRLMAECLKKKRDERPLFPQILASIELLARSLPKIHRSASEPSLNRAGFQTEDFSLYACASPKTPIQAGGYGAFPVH

IC50 [1] | IC50 (A375 cells) | IC50 (H1755 cells) | Papp at 2 h, 1 µM [2] | efflux ratio at 2 h, 1 µM (P-gp (MDR1)) | efflux ratio at 2 h, 1 µM (BCRP) | Kp [3] | SMILES
13 nM | 6 nM | 66 nM | 27 ×10⁻⁶ cm/s | 1.9 | 1.3 | 0.87 to 1.76 | CO[C@@H]1CCN(S(=O)(=O)Nc2ccc(F)c(Nc3ccc4ncn(C)c(=O)c4c3Cl)c2Cl)C1 [Example 6, (R)-N-(2-chloro-4-fluoro-3-((5-chloro-3-methyl-4-oxo-3,4-dihydroquinazolin-6-yl)amino)phenyl)-3-methoxypyrrolidine-1-sulfonamide]
12 nM | 5 nM | 31 nM | 29 ×10⁻⁶ cm/s | 1.7 | 2.2 | 0.37 to 0.61 | Cn1cnc2ccc(Nc3c(F)ccc(NS(=O)(=O)N4CCCC4)c3Cl)c(F)c2c1=O [Example 7, N-(2-chloro-4-fluoro-3-((5-fluoro-3-methyl-4-oxo-3,4-dihydroquinazolin-6-yl)amino)phenyl)pyrrolidine-1-sulfonamide trifluoroacetate]
7 nM | 14 nM | 85 nM | 29 ×10⁻⁶ cm/s | 1.1 | 1.1 | 0.36 to 0.4 | Cn1cnc2ccc(Nc3c(F)ccc(NS(=O)(=O)N4CC5CC4C5)c3Cl)c(Cl)c2c1=O [Example 9, N-(2-chloro-3-((5-chloro-3-methyl-4-oxo-3,4-dihydroquinazolin-6-yl)amino)-4-fluorophenyl)-2-azabicyclo[2.1.1]hexane-2-sulfonamide trifluoroacetate]
7 nM | 8 nM | 97 nM | 28 ×10⁻⁶ cm/s | 1.1 | 0.9 | 0.34 to 0.39 | Cn1cnc2ccc(Nc3c(F)ccc(NS(=O)(=O)N4CCCC4)c3Cl)c(Cl)c2c1=O [Example 12, N-(2-chloro-3-((5-chloro-3-methyl-4-oxo-3,4-dihydroquinazolin-6-yl)amino)-4-fluorophenyl)pyrrolidine-1-sulfonamide trifluoroacetate]
4 nM | 7 nM | 80 nM | 24 ×10⁻⁶ cm/s | 1.3 | 1.1 | 0.61 to 0.64 | Cn1cnc2ccc(Nc3c(F)ccc(NS(=O)(=O)N4CC5CC5C4)c3Cl)c(Cl)c2c1=O (centres unmarked) [Example 17, N-(2-chloro-3-((5-chloro-3-methyl-4-oxo-3,4-dihydroquinazolin-6-yl)amino)-4-fluorophenyl)-3-azabicyclo[3.1.0]hexane-3-sulfonamide]
4 nM | 5 nM | 39 nM | 30 ×10⁻⁶ cm/s | 2.1 | 1.3 | 0.61 to 0.83 | Cn1cnc2ccc(Nc3c(F)ccc(NS(=O)(=O)N4CC[C@@H](F)C4)c3Cl)c(Cl)c2c1=O [Example 19, (R)-N-(2-chloro-3-((5-chloro-3-methyl-4-oxo-3,4-dihydroquinazolin-6-yl)amino)-4-fluorophenyl)-3-fluoropyrrolidine-1-sulfonamide]
3 nM | 9 nM | 35 nM | 28 ×10⁻⁶ cm/s | 1.7 | 2.9 | 0.41 to 0.55 | Cn1cnc2ccc(Nc3c(F)ccc(NS(=O)(=O)N4CC[C@@H](OC(F)F)C4)c3Cl)c(Cl)c2c1=O [Example 29, (R)-N-(2-chloro-3-((5-chloro-3-methyl-4-oxo-3,4-dihydroquinazolin-6-yl)amino)-4-fluorophenyl)-3-(difluoromethoxy)pyrrolidine-1-sulfonamide]
2 nM | 4 nM | 42 nM | 40 ×10⁻⁶ cm/s | 1.5 | 1.2 | 0.51 to 0.64 | Cn1cnc2ccc(Nc3c(F)ccc(NS(=O)(=O)N4CC5CC5C4)c3Cl)c(F)c2c1=O (centres unmarked) [Example 30, N-(2-chloro-4-fluoro-3-((5-fluoro-3-methyl-4-oxo-3,4-dihydroquinazolin-6-yl)amino)phenyl)-3-azabicyclo[3.1.0]hexane-3-sulfonamide trifluoroacetate]

Continued, molecule first:

SMILES | IC50 [1] | IC50 (A375 cells) | IC50 (H1755 cells) | Papp at 2 h, 1 µM [2] | efflux ratio at 2 h, 1 µM (P-gp (MDR1)) | efflux ratio at 2 h, 1 µM (BCRP) | Kp [3]
Cn1cnc2ccc(Oc3c(F)ccc(NS(=O)(=O)N4CC[C@@H](F)C4)c3Cl)c(F)c2c1=O [Example 20, (R)-N-(2-chloro-4-fluoro-3-((5-fluoro-3-methyl-4-oxo-3,4-dihydroquinazolin-6-yl)oxy)phenyl)-3-fluoropyrrolidine-1-sulfonamide] | 3 nM | 2 nM | 29 nM | 37 ×10⁻⁶ cm/s | 2.2 | 1.8 | 0.4 to 0.58
CO[C@@H]1CCN(S(=O)(=O)Nc2ccc(F)c(Oc3ccc4ncn(C)c(=O)c4c3Cl)c2Cl)C1 [Example 37, (R)-N-(2-chloro-3-((5-chloro-3-methyl-4-oxo-3,4-dihydroquinazolin-6-yl)oxy)-4-fluorophenyl)-3-methoxypyrrolidine-1-sulfonamide] | 4 nM | 4 nM | 33 nM | 29 ×10⁻⁶ cm/s | 2.4 | 1.5 | 0.66 to 0.73
Cn1cnc2ccc(Oc3c(F)ccc(NS(=O)(=O)N4CC[C@@H](F)C4)c3Cl)c(Cl)c2c1=O [Example 38, (R)-N-(2-chloro-3-((5-chloro-3-methyl-4-oxo-3,4-dihydroquinazolin-6-yl)oxy)-4-fluorophenyl)-3-fluoropyrrolidine-1-sulfonamide] | 2 nM | 5 nM | 27 nM | 33 ×10⁻⁶ cm/s | 1.2 | 1.8 | 0.2 to 0.24
Cn1cnc2ccc(Nc3c(F)c(F)cc(NS(=O)(=O)N4CCCC4)c3Cl)c(F)c2c1=O [Example 40, N-(2-chloro-4,5-difluoro-3-((5-fluoro-3-methyl-4-oxo-3,4-dihydroquinazolin-6-yl)amino)phenyl)pyrrolidine-1-sulfonamide trifluoroacetate] | 2 nM | 4 nM | 50 nM | 29 ×10⁻⁶ cm/s | 2 | 2.3 | 0.55 to 0.72
Cn1cnc2ccc(Nc3c(F)c(F)cc(NS(=O)(=O)N4CC5CC4C5)c3Cl)c(F)c2c1=O [Example 41, N-(2-chloro-4,5-difluoro-3-((5-fluoro-3-methyl-4-oxo-3,4-dihydroquinazolin-6-yl)amino)phenyl)-2-azabicyclo[2.1.1]hexane-2-sulfonamide trifluoroacetate] | 3 nM | 5 nM | 42 nM | 29 ×10⁻⁶ cm/s | 1.9 | 2.5 | 0.35 to 0.45
Cn1cnc2ccc(Oc3c(F)ccc(NS(=O)(=O)N4CCCC4)c3Cl)c(F)c2c1=O [Example 44, N-(2-chloro-4-fluoro-3-((5-fluoro-3-methyl-4-oxo-3,4-dihydroquinazolin-6-yl)oxy)phenyl)pyrrolidine-1-sulfonamide trifluoroacetate] | 2 nM | 3 nM | 56 nM | 34 ×10⁻⁶ cm/s | 1.4 | 0.9 | 0.35 to 0.47
